From PubChem BioAssay (NCI)
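Five compound concentrations were applied to cells in 96-well plates for 48 hours; endpoints were derived by simple linear interpolation of the resulting dose-response curve. TGI: total growth inhibition.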

Tests used:
Test in all cases: inhibition of tumour cell growth, NCI panel, 48 h
MCF7 breast = tested on: MCF7 breast
HL-60(TB) leukemia = tested on: HL-60(TB) leukemia
K-562 leukemia = tested on: K-562 leukemia
HOP-62 NSCLC = tested on: HOP-62 NSCLC
RXF 393 renal = tested on: RXF 393 renal
HT29 colon = tested on: HT29 colon
SR leukemia = tested on: SR leukemia
SF-539 CNS = tested on: SF-539 CNS
CCRF-CEM leukemia = tested on: CCRF-CEM leukemia
SK-OV-3 ovarian = tested on: SK-OV-3 ovarian
MALME-3M melanoma = tested on: MALME-3M melanoma
SNB-19 CNS = tested on: SNB-19 CNS
DU-145 prostate = tested on: DU-145 prostate
U251 CNS = tested on: U251 CNS
SF-295 CNS = tested on: SF-295 CNS
HCT-15 colon = tested on: HCT-15 colon
SW-620 colon = tested on: SW-620 colon
BT-549 breast = tested on: BT-549 breast
SN12C renal = tested on: SN12C renal
NCI/ADR-RES ovarian = tested on: NCI/ADR-RES ovarian
NCI-H226 lung = tested on: NCI-H226 lung
SK-MEL-5 melanoma = tested on: SK-MEL-5 melanoma
PC-3 prostate = tested on: PC-3 prostate
UO-31 renal = tested on: UO-31 renal
OVCAR-5 ovarian = tested on: OVCAR-5 ovarian
HS 578T breast = tested on: HS 578T breast
LOX IMVI melanoma = tested on: LOX IMVI melanoma
UACC-62 melanoma = tested on: UACC-62 melanoma
SF-268 CNS = tested on: SF-268 CNS
UACC-257 melanoma = tested on: UACC-257 melanoma
A549 NSCLC = tested on: A549 NSCLC
NCI-H460 lung = tested on: NCI-H460 lung
KM12 colon = tested on: KM12 colon
TK-10 renal = tested on: TK-10 renal
MDA-MB-231 breast = tested on: MDA-MB-231 breast
M14 melanoma = tested on: M14 melanoma
IGROV1 ovarian = tested on: IGROV1 ovarian
MDA-MB-435 = tested on: MDA-MB-435
OVCAR-3 ovarian = tested on: OVCAR-3 ovarian
CAKI-1 renal = tested on: CAKI-1 renal
OVCAR-8 ovarian = tested on: OVCAR-8 ovarian
HCT-116 colon = tested on: HCT-116 colon
NCI-H23 lung = tested on: NCI-H23 lung
HCC-2998 colon = tested on: HCC-2998 colon
ACHN renal = tested on: ACHN renal
A498 renal = tested on: A498 renal
EKVX NSCLC = tested on: EKVX NSCLC
RPMI-8226 leukemia = tested on: RPMI-8226 leukemia
MOLT-4 leukemia = tested on: MOLT-4 leukemia
SK-MEL-28 melanoma = tested on: SK-MEL-28 melanoma
OVCAR-4 ovarian = tested on: OVCAR-4 ovarian
786-0 renal = tested on: 786-0 renal
COLO 205 colon = tested on: COLO 205 colon
NCI-H522 lung = tested on: NCI-H522 lung
SK-MEL-2 melanoma = tested on: SK-MEL-2 melanoma
HOP-92 NSCLC = tested on: HOP-92 NSCLC
SNB-75 CNS = tested on: SNB-75 CNS

O=[N+]([O-])/C(C(Cl)=C(Cl)Cl)=C1\NCCS1
TGI (MCF7 breast): > 100 µM | TGI (HL-60(TB) leukemia): 48.3 µM | TGI (K-562 leukemia): 41.4 µM | TGI (HOP-62 NSCLC): > 100 µM | TGI (RXF 393 renal): 58.8 µM | TGI (HT29 colon): > 100 µM | TGI (SR leukemia): 46.4 µM | TGI (SF-539 CNS): > 100 µM | TGI (CCRF-CEM leukemia): 46.2 µM | TGI (SK-OV-3 ovarian): > 100 µM | TGI (MALME-3M melanoma): 92.6 µM | TGI (SNB-19 CNS): > 100 µM | TGI (DU-145 prostate): > 100 µM | TGI (U251 CNS): > 100 µM | TGI (SF-295 CNS): > 100 µM | TGI (HCT-15 colon): > 100 µM | TGI (SW-620 colon): > 100 µM | TGI (BT-549 breast): > 100 µM | TGI (SN12C renal): > 100 µM | TGI (NCI/ADR-RES ovarian): > 100 µM | TGI (NCI-H226 lung): > 100 µM | TGI (SK-MEL-5 melanoma): > 100 µM | TGI (PC-3 prostate): > 100 µM | TGI (UO-31 renal): > 100 µM | TGI (OVCAR-5 ovarian): > 100 µM | TGI (HS 578T breast): > 100 µM | TGI (LOX IMVI melanoma): 44.1 µM | TGI (UACC-62 melanoma): > 100 µM | TGI (SF-268 CNS): > 100 µM | TGI (UACC-257 melanoma): > 100 µM | TGI (A549 NSCLC): > 100 µM | TGI (NCI-H460 lung): > 100 µM | TGI (KM12 colon): > 100 µM | TGI (TK-10 renal): > 100 µM | TGI (MDA-MB-231 breast): > 100 µM | TGI (M14 melanoma): > 100 µM | TGI (IGROV1 ovarian): > 100 µM | TGI (MDA-MB-435): > 100 µM | TGI (OVCAR-3 ovarian): > 100 µM | TGI (CAKI-1 renal): > 100 µM | TGI (OVCAR-8 ovarian): > 100 µM | TGI (HCT-116 colon): > 100 µM | TGI (NCI-H23 lung): > 100 µM | TGI (HCC-2998 colon): > 100 µM | TGI (ACHN renal): > 100 µM | TGI (A498 renal): > 100 µM | TGI (EKVX NSCLC): > 100 µM | TGI (RPMI-8226 leukemia): 54.5 µM | TGI (MOLT-4 leukemia): 62.4 µM | TGI (SK-MEL-28 melanoma): > 100 µM | TGI (OVCAR-4 ovarian): > 100 µM | TGI (786-0 renal): > 100 µM | TGI (COLO 205 colon): > 100 µM

O=[N+]([O-])c1ccc(OCc2nnc(CCCCCCCCc3nnc(COc4ccc([N+](=O)[O-])cc4)o3)o2)cc1
TGI (MCF7 breast): > 100 µM | TGI (NCI-H522 lung): > 100 µM | TGI (K-562 leukemia): > 100 µM | TGI (RXF 393 renal): 83.3 µM | TGI (HT29 colon): > 100 µM | TGI (SK-OV-3 ovarian): > 100 µM | TGI (MALME-3M melanoma): > 100 µM | TGI (SNB-19 CNS): > 100 µM | TGI (DU-145 prostate): > 100 µM | TGI (U251 CNS): > 100 µM | TGI (SK-MEL-2 melanoma): > 100 µM | TGI (SF-295 CNS): > 100 µM | TGI (HCT-15 colon): > 100 µM | TGI (SW-620 colon): > 100 µM | TGI (BT-549 breast): > 100 µM | TGI (SN12C renal): > 100 µM | TGI (NCI/ADR-RES ovarian): > 100 µM | TGI (NCI-H226 lung): > 100 µM | TGI (SK-MEL-5 melanoma): > 100 µM | TGI (PC-3 prostate): > 100 µM | TGI (UO-31 renal): > 100 µM | TGI (OVCAR-5 ovarian): > 100 µM | TGI (UACC-62 melanoma): > 100 µM | TGI (SF-268 CNS): > 100 µM | TGI (UACC-257 melanoma): > 100 µM | TGI (A549 NSCLC): > 100 µM | TGI (HOP-92 NSCLC): > 100 µM | TGI (SNB-75 CNS): > 100 µM | TGI (NCI-H460 lung): > 100 µM | TGI (KM12 colon): > 100 µM | TGI (TK-10 renal): > 100 µM | TGI (MDA-MB-231 breast): > 100 µM | TGI (M14 melanoma): > 100 µM | TGI (IGROV1 ovarian): > 100 µM | TGI (MDA-MB-435): > 100 µM | TGI (OVCAR-3 ovarian): > 100 µM | TGI (HCT-116 colon): > 100 µM | TGI (NCI-H23 lung): > 100 µM | TGI (HCC-2998 colon): > 100 µM | TGI (ACHN renal): > 100 µM | TGI (A498 renal): > 100 µM | TGI (EKVX NSCLC): > 100 µM | TGI (RPMI-8226 leukemia): > 100 µM | TGI (MOLT-4 leukemia): > 100 µM | TGI (SK-MEL-28 melanoma): > 100 µM | TGI (OVCAR-4 ovarian): > 100 µM | TGI (786-0 renal): > 100 µM | TGI (COLO 205 colon): > 100 µM
